Measured values as given in PubChem BioAssay (NCI).
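48-hour exposure; five concentrations; linearly interpolated endpoints. GI50 = concentration required for 50% inhibition of growth. Definition used: TGI = concentration required for complete inhibition of growth.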

Assays:
Assay in all cases: DTP human tumour cell line panel, 48 h
NCI-H226 lung = system: NCI-H226 lung
SK-MEL-2 melanoma = system: SK-MEL-2 melanoma
MCF7 breast = system: MCF7 breast
ACHN renal = system: ACHN renal
U251 CNS = system: U251 CNS
RPMI-8226 leukemia = system: RPMI-8226 leukemia
NCI-H460 lung = system: NCI-H460 lung
NCI/ADR-RES ovarian = system: NCI/ADR-RES ovarian
KM12 colon = system: KM12 colon
HCC-2998 colon = system: HCC-2998 colon
HCT-15 colon = system: HCT-15 colon
A498 renal = system: A498 renal
CCRF-CEM leukemia = system: CCRF-CEM leukemia
T-47D breast = system: T-47D breast
SF-539 CNS = system: SF-539 CNS
SR leukemia = system: SR leukemia
UACC-257 melanoma = system: UACC-257 melanoma
TK-10 renal = system: TK-10 renal
SF-268 CNS = system: SF-268 CNS
MDA-MB-231 breast = system: MDA-MB-231 breast
SF-295 CNS = system: SF-295 CNS
UO-31 renal = system: UO-31 renal
A549 NSCLC = system: A549 NSCLC
MOLT-4 leukemia = system: MOLT-4 leukemia
MDA-MB-435 = system: MDA-MB-435
NCI-H23 lung = system: NCI-H23 lung
HOP-62 NSCLC = system: HOP-62 NSCLC
DU-145 prostate = system: DU-145 prostate
HS 578T breast = system: HS 578T breast
NCI-H522 lung = system: NCI-H522 lung
IGROV1 ovarian = system: IGROV1 ovarian
786-0 renal = system: 786-0 renal
SK-OV-3 ovarian = system: SK-OV-3 ovarian
COLO 205 colon = system: COLO 205 colon
HCT-116 colon = system: HCT-116 colon
SK-MEL-28 melanoma = system: SK-MEL-28 melanoma
LOX IMVI melanoma = system: LOX IMVI melanoma
MALME-3M melanoma = system: MALME-3M melanoma
BT-549 breast = system: BT-549 breast
OVCAR-8 ovarian = system: OVCAR-8 ovarian
K-562 leukemia = system: K-562 leukemia
PC-3 prostate = system: PC-3 prostate
CAKI-1 renal = system: CAKI-1 renal
M14 melanoma = system: M14 melanoma
UACC-62 melanoma = system: UACC-62 melanoma
OVCAR-5 ovarian = system: OVCAR-5 ovarian
SNB-19 CNS = system: SNB-19 CNS
SN12C renal = system: SN12C renal
HOP-92 NSCLC = system: HOP-92 NSCLC
HL-60(TB) leukemia = system: HL-60(TB) leukemia
SNB-75 CNS = system: SNB-75 CNS
OVCAR-4 ovarian = system: OVCAR-4 ovarian
SW-620 colon = system: SW-620 colon
HT29 colon = system: HT29 colon

CC(C)(C)c1[nH]nc2c1C(c1cc3ccccc3[nH]c1=O)Nc1cc(C(=O)OCc3ccccc3)ccc1N2 (stereo not drawn)
GI50 (NCI-H226 lung): 3.2 µM
TGI (NCI-H226 lung): > 100 µM
GI50 (SK-MEL-2 melanoma): 3.33 µM
TGI (SK-MEL-2 melanoma): 7.28 µM
GI50 (MCF7 breast): 3.37 µM
TGI (MCF7 breast): > 100 µM
GI50 (ACHN renal): 4.25 µM
TGI (ACHN renal): > 100 µM
GI50 (U251 CNS): 3.41 µM
TGI (U251 CNS): > 100 µM
GI50 (RPMI-8226 leukemia): 2.71 µM
TGI (RPMI-8226 leukemia): > 100 µM
GI50 (NCI-H460 lung): 3.14 µM
TGI (NCI-H460 lung): > 100 µM
GI50 (NCI/ADR-RES ovarian): > 100 µM
TGI (NCI/ADR-RES ovarian): > 100 µM
GI50 (KM12 colon): 2.83 µM
TGI (KM12 colon): 7.34 µM
GI50 (HCC-2998 colon): 4.08 µM
TGI (HCC-2998 colon): > 100 µM
GI50 (HCT-15 colon): 4.65 µM
TGI (HCT-15 colon): > 100 µM
GI50 (A498 renal): 3.73 µM
TGI (A498 renal): 81.9 µM
GI50 (CCRF-CEM leukemia): 3.23 µM
TGI (CCRF-CEM leukemia): > 100 µM
GI50 (T-47D breast): 4.08 µM
TGI (T-47D breast): > 100 µM
GI50 (SF-539 CNS): 4.56 µM
TGI (SF-539 CNS): > 100 µM
GI50 (SR leukemia): 3.52 µM
TGI (SR leukemia): > 100 µM
GI50 (UACC-257 melanoma): 2.71 µM
TGI (UACC-257 melanoma): > 100 µM
GI50 (TK-10 renal): 3.83 µM
TGI (TK-10 renal): 19.6 µM
GI50 (SF-268 CNS): 4.82 µM
TGI (SF-268 CNS): > 100 µM
GI50 (MDA-MB-231 breast): 5.91 µM
TGI (MDA-MB-231 breast): > 100 µM
GI50 (SF-295 CNS): 3.17 µM
TGI (SF-295 CNS): 38.5 µM
GI50 (UO-31 renal): 3.42 µM
TGI (UO-31 renal): > 100 µM
GI50 (A549 NSCLC): 3.33 µM
TGI (A549 NSCLC): > 100 µM
GI50 (MOLT-4 leukemia): 3.3 µM
TGI (MOLT-4 leukemia): 44.1 µM
GI50 (MDA-MB-435): 2.95 µM
TGI (MDA-MB-435): > 100 µM
GI50 (NCI-H23 lung): 5.14 µM
TGI (NCI-H23 lung): > 100 µM
GI50 (HOP-62 NSCLC): 6.37 µM
TGI (HOP-62 NSCLC): > 100 µM
GI50 (DU-145 prostate): 6.04 µM
TGI (DU-145 prostate): > 100 µM
GI50 (HS 578T breast): 7.45 µM
TGI (HS 578T breast): > 100 µM
GI50 (NCI-H522 lung): 3.11 µM
TGI (NCI-H522 lung): 8.78 µM
GI50 (IGROV1 ovarian): 4.32 µM
TGI (IGROV1 ovarian): > 100 µM
GI50 (786-0 renal): 3.41 µM
TGI (786-0 renal): > 100 µM
GI50 (SK-OV-3 ovarian): 3.27 µM
TGI (SK-OV-3 ovarian): 8.73 µM
GI50 (COLO 205 colon): 3.54 µM
TGI (COLO 205 colon): 10.4 µM
GI50 (HCT-116 colon): 3.2 µM
TGI (HCT-116 colon): > 100 µM
GI50 (SK-MEL-28 melanoma): 2.44 µM
TGI (SK-MEL-28 melanoma): 6.43 µM
GI50 (LOX IMVI melanoma): 3.35 µM
TGI (LOX IMVI melanoma): > 100 µM
GI50 (MALME-3M melanoma): 2.49 µM
TGI (MALME-3M melanoma): 7.47 µM
GI50 (BT-549 breast): 3.35 µM
TGI (BT-549 breast): > 100 µM
GI50 (OVCAR-8 ovarian): 5.5 µM
TGI (OVCAR-8 ovarian): > 100 µM
GI50 (K-562 leukemia): 4.18 µM
TGI (K-562 leukemia): > 100 µM
GI50 (PC-3 prostate): 2.7 µM
TGI (PC-3 prostate): > 100 µM
GI50 (CAKI-1 renal): 8.75 µM
TGI (CAKI-1 renal): > 100 µM
GI50 (M14 melanoma): 4.28 µM
TGI (M14 melanoma): > 100 µM
GI50 (UACC-62 melanoma): 1.9 µM
TGI (UACC-62 melanoma): 3.9 µM
GI50 (OVCAR-5 ovarian): 4.05 µM
TGI (OVCAR-5 ovarian): > 100 µM
GI50 (SNB-19 CNS): 3.28 µM
TGI (SNB-19 CNS): > 100 µM
GI50 (SN12C renal): 3.77 µM
TGI (SN12C renal): > 100 µM
GI50 (HOP-92 NSCLC): 1.35 µM
TGI (HOP-92 NSCLC): 8.34 µM
GI50 (HL-60(TB) leukemia): 3.66 µM
TGI (HL-60(TB) leukemia): > 100 µM
GI50 (SNB-75 CNS): 4.37 µM
TGI (SNB-75 CNS): > 100 µM
GI50 (OVCAR-4 ovarian): 4.12 µM
TGI (OVCAR-4 ovarian): > 100 µM
GI50 (SW-620 colon): 3.53 µM
TGI (SW-620 colon): > 100 µM
GI50 (HT29 colon): 2.75 µM
TGI (HT29 colon): 6.52 µM
